In patent publication US12319648B2, “Fluorinated phenylacetic acid derivatives in a weed control method” (SYNGENTA CROP PROTECTION AG, priority 2019, dated 2025):

Key:
Assay type in all cases: in vivo
[1] = system: Amaranthus retoflexus (AMARE); experiment: Post-emergence herbicidal glasshouse test; details: for % phytotoxicity AMARE: comparative post-emergence test
Summary of the method: (§1)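 Plants were sprayed one day after sowing (pre-emergence) or after 8 days' growth (post-emergence) at 250 g/ha unless otherwise stated, in acetone/water (50:50) with 0.5% Tween 20. Glasshouse conditions were 24/16 °C, 14 h light, 65% humidity. Damage was scored after 13 days on a five-point scale (5=81-100%; 1=0-20%).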

[2] = system: Echinochloa crus-galli (ECHCG); experiment: Post-emergence herbicidal glasshouse test; details: for % phytotoxicity ECHCG: comparative post-emergence test
Summary of the method: as §1

[3] = system: Ipomoea hederacea (IPOHE); experiment: Post-emergence herbicidal glasshouse test; details: for % phytotoxicity IPOHE: comparative post-emergence test
Summary of the method: as §1

[4] = system: Lolium perenne (LOLPE); experiment: Post-emergence herbicidal glasshouse test; details: for % phytotoxicity LOLPE: comparative post-emergence test
Summary of the method: as §1

[5] = system: Setaria faberi (SETFA); experiment: Post-emergence herbicidal glasshouse test; details: for % phytotoxicity SETFA: comparative post-emergence test
Summary of the method: as §1

[6] = system: Solanum nigrum (SOLNI); experiment: Post-emergence herbicidal glasshouse test; details: for % phytotoxicity SOLNI: comparative post-emergence test
Summary of the method: as §1

[7] = system: Amaranthus retoflexus (AMARE); experiment: Pre-emergence herbicidal glasshouse test; details: for % phytotoxicity AMARE: comparative pre-emergence test
Summary of the method: as §1

[8] = system: Echinochloa crus-galli (ECHCG); experiment: Pre-emergence herbicidal glasshouse test; details: for % phytotoxicity ECHCG: comparative pre-emergence test
Summary of the method: as §1

[9] = system: Ipomoea hederacea (IPOHE); experiment: Pre-emergence herbicidal glasshouse test; details: for % phytotoxicity IPOHE: comparative pre-emergence test
Summary of the method: as §1

[10] = system: Lolium perenne (LOLPE); experiment: Pre-emergence herbicidal glasshouse test; details: for % phytotoxicity LOLPE: comparative pre-emergence test
Summary of the method: as §1

[11] = system: Setaria faberi (SETFA); experiment: Pre-emergence herbicidal glasshouse test; details: for % phytotoxicity SETFA: comparative pre-emergence test
Summary of the method: as §1

[12] = system: Solanum nigrum (SOLNI); experiment: Pre-emergence herbicidal glasshouse test; details: for % phytotoxicity SOLNI: comparative pre-emergence test
Summary of the method: as §1

[13] = post-emergence, 250 g/ha, 13 days after application
[14] = pre-emergence, 250 g/ha, 13 days after application

O=C(O)C(F)(F)c1cccc(Cl)c1Cl [Compound 1.014]
% phytotoxicity AMARE ([1]; 500 g/ha): 100%
% phytotoxicity AMARE ([1]; 1000 g/ha): 100%
percentage damage caused to the plant, five-point scale, AMARE [1, 13]: 5 (5=81-100%)
% phytotoxicity ECHCG ([2]; 500 g/ha): 80%
% phytotoxicity ECHCG ([2]; 1000 g/ha): 90%
percentage damage caused to the plant, five-point scale, ECHCG [2, 13]: 5 (5=81-100%)
% phytotoxicity IPOHE ([3]; 500 g/ha): 90%
% phytotoxicity IPOHE ([3]; 1000 g/ha): 90%
percentage damage caused to the plant, five-point scale, IPOHE [3, 13]: 5 (5=81-100%)
% phytotoxicity LOLPE ([4]; 500 g/ha): 10%
% phytotoxicity LOLPE ([4]; 1000 g/ha): 20%
percentage damage caused to the plant, five-point scale, LOLPE [4, 13]: 1 (1=0-20%)
% phytotoxicity SETFA ([5]; 500 g/ha): 90%
% phytotoxicity SETFA ([5]; 1000 g/ha): 90%
percentage damage caused to the plant, five-point scale, SETFA [5, 13]: 5 (5=81-100%)
% phytotoxicity SOLNI ([6]; 500 g/ha): 100%
% phytotoxicity SOLNI ([6]; 1000 g/ha): 100%
percentage damage caused to the plant, five-point scale, SOLNI [6, 13]: 5 (5=81-100%)
% phytotoxicity AMARE ([7]; 500 g/ha): 90%
% phytotoxicity AMARE ([7]; 1000 g/ha): 100%
percentage damage caused to the plant, five-point scale, AMARE [7, 14]: 5 (5=81-100%)
% phytotoxicity ECHCG ([8]; 500 g/ha): 30%
% phytotoxicity ECHCG ([8]; 1000 g/ha): 80%
percentage damage caused to the plant, five-point scale, ECHCG [8, 14]: 5 (5=81-100%)
% phytotoxicity IPOHE ([9]; 500 g/ha): 80%
% phytotoxicity IPOHE ([9]; 1000 g/ha): 90%
percentage damage caused to the plant, five-point scale, IPOHE [9, 14]: 5 (5=81-100%)
% phytotoxicity LOLPE ([10]; 500 g/ha): 10%
% phytotoxicity LOLPE ([10]; 1000 g/ha): 40%
percentage damage caused to the plant, five-point scale, LOLPE [10, 14]: 1 (1=0-20%)
% phytotoxicity SETFA ([11]; 500 g/ha): 90%
% phytotoxicity SETFA ([11]; 1000 g/ha): 90%
percentage damage caused to the plant, five-point scale, SETFA [11, 14]: 4 (4=61-80%)
% phytotoxicity SOLNI ([12]; 500 g/ha): 100%
% phytotoxicity SOLNI ([12]; 1000 g/ha): 100%
percentage damage caused to the plant, five-point scale, SOLNI [12, 14]: 5 (5=81-100%)
